According to article PMC7155420 (2020):

How the values were obtained:
[1] = test system: r(CGGx6); GGx6 (RNA, repeat) GGAGAGGGUUUAAUCGGCGGCGGCGGCGGCGGUACGAAAGUACGGCGGCGGCGGCGGCGGAUUGGAUCCGCAAGG; assay: ITC, two-mode fit; details: K+ (10 mM potassium phosphate); 298 K; highest-affinity site
[2] = test system: r(CGGx1); GGx1; (5'CGG/3'GCC) x 1 in Table S1 (RNA, mismatch bulge abasic) GGAGAGGGUUUAAUCGGUACGAAAGUACGGAUUGGAUCCGCAAGG; assay: CD melting, 267 nm; details: K+ (50 mM KCl, 10 mM potassium phosphate); 10 µM RNA; drug/nucleic acid ratio up to 2.0; 1 °C/min; per base
[3] = test system: r(CGGx6); GGx6 (RNA, repeat) GGAGAGGGUUUAAUCGGCGGCGGCGGCGGCGGUACGAAAGUACGGCGGCGGCGGCGGCGGAUUGGAUCCGCAAGG; assay: CD melting, 267 nm; details: K+ (50 mM KCl, 10 mM potassium phosphate); 10 µM RNA; drug/nucleic acid ratio up to 2.0; 1 °C/min; per base
[4] = test system: r(CGGx1); GGx1; (5'CGG/3'GCC) x 1 in Table S1 (RNA, mismatch bulge abasic) GGAGAGGGUUUAAUCGGUACGAAAGUACGGAUUGGAUCCGCAAGG; assay: fluorescence titration (curcumin fluorescence), two-mode fit; details: 50 mM KCl (general buffer); 10 mM phosphate, pH 7.0, 25 °C; stronger of two sites
[5] = test system: r(CGGx6); GGx6 (RNA, repeat) GGAGAGGGUUUAAUCGGCGGCGGCGGCGGCGGUACGAAAGUACGGCGGCGGCGGCGGCGGAUUGGAUCCGCAAGG; assay: as above; details: 50 mM KCl (general buffer); 10 mM phosphate, pH 7.0, 25 °C; stronger of two sites

SMILES: COc1cc(/C=C/C(=O)CC(=O)/C=C/c2ccc(O)c(OC)c2)ccc1O
- Ka [1]: 1.7 × 10^6 M^–1
- ΔTm [2]: 1.49 °C
- ΔTm [3]: 3.48 °C
- Kd1 [4]: 0.12 ± 0.02 µM
- Kd1 [5]: 0.092 ± 0.004 µM
